Assay results as given in paper PMC5826148, “Whole-Cell Screen of Fragment Library Identifies Gut Microbiota Metabolite Indole Propionic Acid as Antitubercular” (Antimicrobial Agents and Chemotherapy, 2018).
In brackets after ≈: the same amount, converted by molar mass. Where two headings read alike, the source gives them in different places.

What was measured:
M. bovis BCG Pasteur = assay: microbe, parasite or virus in culture; assay type: cell-based; conditions: Mycobacterium tuberculosis variant bovis BCG, BCG, read-out: Antibacterial activity (MIC50) M. bovis BCG
M. tuberculosis = assay: Growth inhibition in acidic medium (pH 6.2); assay type: cell-based, Mycobacterium tuberculosis
M. smegmatis = assay: Spectrum of activity: M. smegmatis growth inhibition; assay type: cell-based; conditions: Mycolicibacterium smegmatis, 24 h, read-out: Antibacterial activity (MIC50) M. smegmatis
M. avium = assay: Spectrum of activity: M. avium growth inhibition; assay type: cell-based; conditions: Mycobacterium avium, 96 h, read-out: Antibacterial activity (MIC50) M. avium
[1] = Cytotoxicity assay, HepG2 cells (CellTiter 96 AQueous One); conditions: human, HepG2 cells
M. tuberculosis H37Rv [2] = assay: M. tuberculosis growth inhibition dose-response (MIC50), turbidity readout; assay type: cell-based, Mycobacterium tuberculosis; conditions: Mycobacterium tuberculosis, 240 h, read-out: Antibacterial activity (MIC50) M. tuberculosis
Staphylococcus aureus = assay: Spectrum of activity: S. aureus growth inhibition; assay type: cell-based; conditions: Staphylococcus aureus, read-out: Antibacterial activity (MIC50) S. aureus
[3] = Cytotoxicity assay, THP-1 cells (CellTiter 96 AQueous One); conditions: human
Escherichia coli = assay: Spectrum of activity: E. coli growth inhibition; assay type: cell-based; conditions: Escherichia coli, read-out: Antibacterial activity (MIC50) E. coli
M. tuberculosis H37Rv [4] = assay: Bactericidal activity, CFU enumeration on agar after treatment; assay type: cell-based, Mycobacterium tuberculosis; conditions: Mycobacterium tuberculosis, H37RV, read-out: Bactericidal activity (log reduction) at 1 mM
[5] = test system: human red blood cells (RBCs); assay: Red blood cell lysis assay; conditions: hemolysis
M. abscessus = assay: Spectrum of activity: M. abscessus growth inhibition; assay type: cell-based; conditions: Mycobacteroides abscessus, 72 h, read-out: Antibacterial activity (MIC50) M. abscessus
[6] = Mycobacterium tuberculosis, pH 6.2; read-out: Activity (MIC50) in acidic medium (pH 6.2)
[7] = M. tuberculosis, 1 mM, log CFU/ml reduction from initial inoculum
[8] = Mycobacterium tuberculosis, pH 6.2, read-out: Activity (MIC50) in acidic medium (pH 6.2)

SMILES	MIC50 (M. bovis BCG Pasteur)	MIC50 (M. tuberculosis; [6])	MIC50 (M. smegmatis; 1 day)	MIC50 (M. avium; 4 days)	CC50 at 24 h [1]	MIC50 (M. tuberculosis H37Rv [2]; H37Rv, 10 days)	MIC50 (Staphylococcus aureus; LB medium, overnight)	CC50 at 24 h [3]	MIC50 (Escherichia coli; LB medium, overnight)	log reduction at 1000 µM (M. tuberculosis H37Rv [4]; [7])	RBCs HC50 [5]	MIC50 (M. abscessus; 3 days)	MIC50 (M. tuberculosis; [8])	MIC50 (M. smegmatis)	MIC50 (M. avium)	MIC50 (M. tuberculosis H37Rv [2]; H37RV)	MIC50 (Staphylococcus aureus)	MIC50 (Escherichia coli)	log reduction at 1000 µM (M. tuberculosis H37Rv [4])	MIC50 (M. abscessus)
CCOC(=O)c1c(N)sc(C)c1-c1ccccc1 [Fragment F19, Ethyl 2-amino-5-methyl-4-phenylthiophene-3-carboxylate]	267 µM (≈ 69.8 µg/mL)	117 µM (≈ 30.6 µg/mL)	491 µM (≈ 128 µg/mL)	214 µM (≈ 55.9 µg/mL)	233 µM	270 µM (≈ 70.6 µg/mL)	344 µM (≈ 89.9 µg/mL)	247 µM	> 500 µM	1.98	453 µM	206 µM (≈ 53.8 µg/mL)								
CNCc1ccccc1Oc1ccccc1 [Fragment F23, Methyl[(2-phenoxyphenyl)methyl]amine]	347 µM (≈ 74 µg/mL)	> 500 µM	> 500 µM	> 500 µM	789 µM	305 µM (≈ 65.1 µg/mL)	> 500 µM	976 µM	> 500 µM	1.22	>1,000 μM	> 500 µM								
Cc1cc2cc(N)ccc2[nH]1 [Fragment F21, 2-Methyl-1H-indol-5-amine]	398 µM (≈ 58.2 µg/mL)	305 µM (≈ 44.6 µg/mL)	401 µM (≈ 58.6 µg/mL)	> 500 µM	387 µM	281 µM (≈ 41.1 µg/mL)	487 µM (≈ 71.2 µg/mL)	409 µM	> 500 µM	2.5	>1,000 μM	> 500 µM								
Oc1noc2cc(Cl)ccc12 [Fragment F27, 6-Chlorobenzo[d]isoxazol-3-ol]	> 500 µM	210 µM (≈ 35.6 µg/mL)	> 500 µM	> 500 µM	> 1000 µM	395 µM (≈ 67 µg/mL)	> 500 µM	777 µM	> 500 µM	1.05	>1,000 μM	> 500 µM								
O=C(O)c1ccc(-c2ccccc2)s1 [Fragment F10, 5-Phenylthiophene-2-carboxylic acid]	397 µM (≈ 81.1 µg/mL)	97 µM (≈ 19.8 µg/mL)	345 µM (≈ 70.5 µg/mL)	> 500 µM	612 µM	186 µM (≈ 38 µg/mL)	> 500 µM	544 µM	> 500 µM	1.46	>1,000 μM	247 µM (≈ 50.4 µg/mL)								
O=C(O)c1ccc(-c2ccsc2)cc1 [Fragment F26, 4-(3-Thienyl)benzoic acid]	> 500 µM	125 µM (≈ 25.5 µg/mL)	> 500 µM	> 500 µM	944 µM	320 µM (≈ 65.4 µg/mL)	> 500 µM	978 µM	> 500 µM	1.35	>1,000 μM	497 µM (≈ 102 µg/mL)								
COC(=O)c1cc2ccccc2cn1 [Fragment F4, Methyl isoquinoline-3-carboxylate]	143 µM (≈ 26.8 µg/mL)	158 µM (≈ 29.6 µg/mL)	389 µM (≈ 72.8 µg/mL)	344 µM (≈ 64.4 µg/mL)	> 1000 µM	175 µM (≈ 32.8 µg/mL)	> 500 µM	> 1000 µM	> 500 µM	1.98	>1,000 μM	> 500 µM								
Cc1ccc2c(c1)N(CCO)C(C)(C)CC2C.O (stereo not shown) [Fragment F18, 2-(2,2,4,7-Tetramethyl-1,2,3,4-tetrahydroquinolin-1-yl)ethan-1-ol hydrate]	87 µM										471 µM		86 µM	205 µM	198 µM	268 µM	189 µM	> 500 µM	1.67	247 µM
Oc1ccc(Oc2ccccc2)cc1 [Fragment F29, 4-Phenoxyphenol]	387 µM (≈ 72.1 µg/mL)	118 µM (≈ 22 µg/mL)	250 µM (≈ 46.6 µg/mL)	411 µM (≈ 76.5 µg/mL)	202 µM	439 µM (≈ 81.7 µg/mL)	348 µM (≈ 64.8 µg/mL)	145 µM	201 µM (≈ 37.4 µg/mL)	1.09	912 µM	267 µM (≈ 49.7 µg/mL)								
COC(=O)c1sc2ccccc2c1O [Fragment F9, Methyl 3-hydroxy-1-benzo thiophene-2-carboxylate]	> 500 µM	240 µM (≈ 50 µg/mL)	> 500 µM	> 500 µM		142 µM (≈ 29.6 µg/mL)	217 µM (≈ 45.2 µg/mL)		> 500 µM	2.09	>1,000 μM	> 500 µM								
O=C(O)c1cc2ccccc2cn1 [Fragment F14, Isoquinoline-3-carboxylic acid]	193 µM (≈ 33.4 µg/mL)										>1,000 μM		87 µM (≈ 15.1 µg/mL)	176 µM (≈ 30.5 µg/mL)	473 µM (≈ 81.9 µg/mL)	235 µM (≈ 40.7 µg/mL)	304 µM (≈ 52.6 µg/mL)	193 µM (≈ 33.4 µg/mL)	1.97	> 500 µM
c1ccc2c(c1)[nH]c1cnccc12 [Fragment F6, 9H-Pyrido[3,4-b]indole]	205 µM (≈ 34.5 µg/mL)										787 µM		113 µM (≈ 19 µg/mL)	121 µM (≈ 20.4 µg/mL)	302 µM (≈ 50.8 µg/mL)	97 µM (≈ 16.3 µg/mL)	> 500 µM	302 µM (≈ 50.8 µg/mL)	0.43	254 µM (≈ 42.7 µg/mL)
